Measured values as given in ChEMBL document CHEMBL5370670, “Anti-MRSA Dimeric and Brominated Phenyltetracenoids Produced by Streptomyces morookaense SC1169” (J Nat Prod, 2023).
In brackets after ≈: the same amount, converted by molar mass. Structures can show the parent of a compound that is named as a salt.

Columns and labels:
[1] = system: A549; assay: Cytotoxicity against human A549 cells assessed as cell growth inhibition incubated for 48 hrs by MTT assay; assay type: functional, cell-based; conditions: A549, 48 h
[2] = system: HeLa; assay: Cytotoxicity against human HeLa cells assessed as cell growth inhibition incubated for 48 hrs by MTT assay; assay type: functional, cell-based
[3] = system: HepG2; assay: Cytotoxicity against human HepG2 cells assessed as cell growth inhibition incubated for 48 hrs by MTT assay; assay type: functional, cell-based; conditions: HepG2, 48 h
[4] = system: Staphylococcus aureus; assay: Antibacterial activity against methicillin-resistant Staphylococcus aureus incubated for 6 to 8 hrs by microplate Alamar Blue assay; assay type: functional; conditions: time 6-8 hrs
[5] = system: Enterococcus faecium; assay: Antibacterial activity against Enterococcus faecium incubated for 6 to 8 hrs by microplate Alamar Blue assay; assay type: functional; conditions: time 6-8 hrs
[6] = system: Enterococcus faecium; assay: Antibacterial activity against vancomycin-resistant Enterococcus faecium incubated for 6 to 8 hrs by microplate Alamar Blue assay; assay type: functional; conditions: time 6-8 hrs
[7] = system: MCF7; assay: Cytotoxicity against human MCF7 cells assessed as cell growth inhibition incubated for 48 hrs by MTT assay; assay type: functional, cell-based; conditions: MCF7, 48 h
[8] = system: Staphylococcus aureus; assay: Antibacterial activity against Staphylococcus aureus ATCC 6538 incubated for 6 to 8 hrs by microplate Alamar Blue assay; assay type: functional; conditions: time 6-8 hrs
[9] = Cytotoxicity against African green monkey Vero cells assessed as cell growth inhibition incubated for 48 hrs by MTT assay; assay type: toxicity, cell-based; conditions: African green monkey (Chlorocebus sabaeus)
[10] = Selectivity index, ratio of IC50 for cytotoxicity against African green monkey Vero cells to IC50 for cytotoxicity against human A549 cells; assay type: toxicity, cell-based; conditions: Vero cells and A549 cells, read-out: Ratio IC50

## COc1cc(C)c(-c2cc(OC)c(Br)c3cc4c(c(O)c23)C(=O)c2c(O)cc(O)cc2C4(C)C)c(O)c1
[1]
  IC50: 3.1 µM
[2]
  IC50: 5.8 µM
[3]
  IC50: 4.5 µM
[4]
  MIC: 1.3 µg/mL (≈ 2.3 µM)
[5]
  MIC: 1.3 µg/mL (≈ 2.3 µM)
[6]
  MIC: 1.3 µg/mL (≈ 2.3 µM)
[7]
  IC50: 5.3 µM
[8]
  MIC: 1.3 µg/mL (≈ 2.3 µM)
[9]
  IC50 at 48 h: 5.7 µM

## COc1cc(C)c(-c2cc(OC)cc3cc4c(c(O)c23)C(=O)c2c(OC)cc(OC)cc2C4(C)C)c(O)c1
[1]
  IC50: 6 µM
[2]
  IC50: 7.7 µM
[3]
  IC50: 5.8 µM
[4]
  MIC: > 10 µg/mL
[5]
  MIC: > 10 µg/mL
[7]
  IC50: 9.2 µM
[8]
  MIC: > 10 µg/mL
[9]
  IC50 at 48 h: 9 µM

## COc1cc(C)c(-c2cc(O)cc3cc4c(c(O)c23)C(=O)c2c(cc(OC)c(Br)c2O)C4(C)C)c(O)c1
[1]
  IC50: 2.5 µM
[2]
  IC50: 4.1 µM
[3]
  IC50: 3.5 µM
[4]
  MIC: 0.6 µg/mL (≈ 1.06 µM)
[5]
  MIC: 1.3 µg/mL (≈ 2.3 µM)
[6]
  MIC: 1.3 µg/mL (≈ 2.3 µM)
[7]
  IC50: 3.1 µM
[8]
  MIC: 0.6 µg/mL (≈ 1.06 µM)
[9]
  IC50 at 48 h: 2.8 µM

## COc1cc(-c2c(O)cc(OC)c(OC)c2C)c2c(O)c3c(cc2c1)C(C)(C)c1cc(O)cc(O)c1C3=O
[1]
  IC50: 6.3 µM
[2]
  IC50: 11.1 µM
[3]
  IC50: 4.8 µM
[4]
  MIC: 5 µg/mL (≈ 9.68 µM)
[5]
  MIC: 5 µg/mL (≈ 9.68 µM)
[6]
  MIC: 5 µg/mL (≈ 9.68 µM)
[7]
  IC50: 12.3 µM
[8]
  MIC: 5 µg/mL (≈ 9.68 µM)
[9]
  IC50 at 48 h: 4.5 µM

## COc1cc(C)c(-c2cc(OC)cc3cc4c(c(O)c23)C(=O)c2c(O)cc(OC)cc2C4(C)C)c(O)c1
[1]
  IC50: 4.6 µM
[2]
  IC50: 6.7 µM
[3]
  IC50: 2.7 µM
[4]
  MIC: > 10 µg/mL
[5]
  MIC: > 10 µg/mL
[7]
  IC50: 6.2 µM
[8]
  MIC: > 10 µg/mL
[9]
  IC50 at 48 h: 7.6 µM

## COc1cc(C)c(-c2cc(OC)cc3cc4c(c(O)c23)C(=O)c2c(cc(O)c(Br)c2O)C4(C)C)c(O)c1
[1]
  IC50: 3.3 µM
[2]
  IC50: 3.6 µM
[3]
  IC50: 5.2 µM
[4]
  MIC: 1.3 µg/mL (≈ 2.3 µM)
[5]
  MIC: 1.3 µg/mL (≈ 2.3 µM)
[6]
  MIC: 2.5 µg/mL (≈ 4.42 µM)
[7]
  IC50: 8.9 µM
[8]
  MIC: 1.3 µg/mL (≈ 2.3 µM)
[9]
  IC50 at 48 h: 9 µM

## COc1cc(-c2c(O)cc(OC)c(Cc3c(OC)cc(C)c(-c4cc(OC)cc5cc6c(c(O)c45)C(=O)c4c(O)cc(O)cc4C6(C)C)c3O)c2C)c2c(O)c3c(cc2c1)C(C)(C)c1cc(O)cc(O)c1C3=O
[1]
  IC50: > 50 µM
[2]
  IC50: > 50 µM
[3]
  IC50: > 50 µM
[4]
  MIC: > 10 µg/mL
[5]
  MIC: > 10 µg/mL
[7]
  IC50: > 50 µM
[8]
  MIC: > 10 µg/mL
[9]
  IC50 at 48 h: > 50 µM

## CN[C@H](CC(C)C)C(=O)N[C@H]1C(=O)N[C@@H](CC(N)=O)C(=O)N[C@H]2C(=O)N[C@H]3C(=O)N[C@H](C(=O)N[C@H](C(=O)O)c4cc(O)cc(O)c4-c4cc3ccc4O)[C@H](O)c3ccc(c(Cl)c3)Oc3cc2cc(c3O[C@@H]2O[C@H](CO)[C@@H](O)[C@H](O)[C@H]2O[C@H]2C[C@](C)(N)[C@H](O)[C@H](C)O2)Oc2ccc(cc2Cl)[C@H]1O [VANCOMYCIN]
[4]
  MIC: 0.6 µg/mL (≈ 0.414 µM)
[5]
  MIC: 1.3 µg/mL (≈ 0.897 µM)
[6]
  MIC: > 40 µg/mL

## COc1cc(C)c(C(=O)c2c(CC(C)=O)cc3c(c2O)C(=O)c2c(cc(OC)c(Br)c2OC)C3(C)C)c(OC)c1
[1]
  IC50: 10.2 µM
[2]
  IC50: 12.6 µM
[3]
  IC50: 13.6 µM
[4]
  MIC: > 10 µg/mL
[5]
  MIC: > 10 µg/mL
[7]
  IC50: 12.3 µM
[8]
  MIC: > 10 µg/mL
[9]
  IC50 at 48 h: > 50 µM

## COc1cc(C)c(-c2cc(OC)cc3cc4c(c(O)c23)C(=O)c2c(O)cc(O)cc2C4(C)C)c(O)c1
[4]
  MIC: 1.3 µg/mL (≈ 2.67 µM)
[5]
  MIC: 1.3 µg/mL (≈ 2.67 µM)
[6]
  MIC: 1.3 µg/mL (≈ 2.67 µM)
[8]
  MIC: 1.3 µg/mL (≈ 2.67 µM)

## COc1cc(-c2c(O)cc(OC)c(Cc3c(OC)cc(O)c(-c4cc(OC)cc5cc6c(c(O)c45)C(=O)c4c(O)cc(O)cc4C6(C)C)c3C)c2C)c2c(O)c3c(cc2c1)C(C)(C)c1cc(O)cc(O)c1C3=O
[1]
  IC50: 5.7 µM
[2]
  IC50: 15.8 µM
[3]
  IC50: 16.7 µM
[4]
  MIC: 2.5 µg/mL (≈ 2.54 µM)
[5]
  MIC: > 10 µg/mL
[7]
  IC50: 17.2 µM
[8]
  MIC: 2.5 µg/mL (≈ 2.54 µM)
[10]
  selectivity ratio: 3
[9]
  IC50 at 48 h: 17.6 µM

## COc1cc(C)c(-c2cc(O)cc3cc4c(c(O)c23)C(=O)c2c(O)cc(OC)cc2C4(C)C)c(O)c1
[1]
  IC50: 5.3 µM
[2]
  IC50: 6.5 µM
[3]
  IC50: 7 µM
[4]
  MIC: 2.5 µg/mL (≈ 5.14 µM)
[5]
  MIC: 1.3 µg/mL (≈ 2.67 µM)
[6]
  MIC: 2.5 µg/mL (≈ 5.14 µM)
[7]
  IC50: 16.5 µM
[8]
  MIC: 2.5 µg/mL (≈ 5.14 µM)
[9]
  IC50 at 48 h: 6.7 µM

## COc1cc(C)c(-c2cc(OC)cc3cc4c(c(O)c23)C(=O)c2c(cc(OC)c(Br)c2O)C4(C)C)c(O)c1
[1]
  IC50: 3.3 µM
[2]
  IC50: 1.7 µM
[3]
  IC50: 4.7 µM
[4]
  MIC: > 10 µg/mL
[5]
  MIC: > 10 µg/mL
[7]
  IC50: 7.9 µM
[8]
  MIC: > 10 µg/mL
[9]
  IC50 at 48 h: 7.3 µM

## COC1=CC(=O)C(c2cc(OC)cc3cc4c(c(O)c23)C(=O)c2c(O)cc(O)cc2C4(C)C)=C(C)C1=O
[1]
  IC50: 8.9 µM
[2]
  IC50: 14.6 µM
[3]
  IC50: 12.4 µM
[4]
  MIC: > 10 µg/mL
[5]
  MIC: > 10 µg/mL
[7]
  IC50: 9.6 µM
[8]
  MIC: > 10 µg/mL
[9]
  IC50 at 48 h: 15.1 µM

## COc1cc(C)c(-c2cc(O)c(Cl)c3cc4c(c(O)c23)C(=O)c2c(cc(OC)c(Cl)c2O)C4(C)C)c(O)c1
[4]
  MIC: 2.5 µg/mL (≈ 4.5 µM)
[5]
  MIC: 2.5 µg/mL (≈ 4.5 µM)
[6]
  MIC: 2.5 µg/mL (≈ 4.5 µM)
[8]
  MIC: 2.5 µg/mL (≈ 4.5 µM)

## COc1cc(C)c(-c2cc(O)c(Br)c3cc4c(c(O)c23)C(=O)c2c(cc(OC)c(Br)c2O)C4(C)C)c(O)c1
[1]
  IC50: 2.8 µM
[2]
  IC50: 1.7 µM
[3]
  IC50: 5.9 µM
[4]
  MIC: 1.3 µg/mL (≈ 2.02 µM)
[5]
  MIC: 2.5 µg/mL (≈ 3.88 µM)
[6]
  MIC: 2.5 µg/mL (≈ 3.88 µM)
[7]
  IC50: 4.6 µM
[8]
  MIC: 1.3 µg/mL (≈ 2.02 µM)
[9]
  IC50 at 48 h: 15.1 µM

## COc1cccc2c1C(=O)c1c(O)c3c(c(O)c1C2=O)C[C@@](O)(C(=O)CO)C[C@@H]3O[C@H]1C[C@H](N)[C@H](O)[C@H](C)O1 [DOXORUBICIN HYDROCHLORIDE]
[1]
  IC50: 0.7 µM
[3]
  IC50: 0.8 µM

## COc1cc(C)c(-c2cc(O)cc3cc4c(c(O)c23)C(=O)c2c(cc(OC)c(Br)c2OC)C4(C)C)c(O)c1
[1]
  IC50: 4.7 µM
[2]
  IC50: 5.1 µM
[3]
  IC50: 5.7 µM
[4]
  MIC: 5 µg/mL (≈ 8.63 µM)
[5]
  MIC: 5 µg/mL (≈ 8.63 µM)
[6]
  MIC: 5 µg/mL (≈ 8.63 µM)
[7]
  IC50: 8.6 µM
[8]
  MIC: 5 µg/mL (≈ 8.63 µM)
[9]
  IC50 at 48 h: 5.8 µM

## COc1cc(C)c(-c2cc(O)cc3cc4c(c(O)c23)C(=O)c2c(cc(OC)c(Cl)c2O)C4(C)C)c(O)c1
[4]
  MIC: 2.5 µg/mL (≈ 4.8 µM)
[5]
  MIC: 2.5 µg/mL (≈ 4.8 µM)
[6]
  MIC: 2.5 µg/mL (≈ 4.8 µM)
[8]
  MIC: 2.5 µg/mL (≈ 4.8 µM)

## NC[C@H]1O[C@H](O[C@H]2[C@H](O)[C@@H](O[C@H]3O[C@H](CO)[C@@H](O)[C@H](N)[C@H]3O)[C@H](N)C[C@@H]2N)[C@H](O)[C@@H](O)[C@@H]1O [KANAMYCIN]
[8]
  MIC: 1.3 µg/mL (≈ 2.68 µM)
